Earlier results in patent publication US20060127459A1, “Urogenital infection inhibition” (priority 2004, published 2006).

Test system: pathogen adherence to epithelium cells
Settings: positive control, shown in U.S. patent application Ser. No. 10/401,522

Hyaluronic acid (HLA) potassium salt
pathogen adherence to epithelium cells: inhibit pathogen adherence
